This is an account of results in patent US6943189B2, “Combination therapy employing ileal bile acid transport inhibiting benzothiepines and HMG CO-A reductase inhibitors” (G.D. Searle & Co., priority 1994, dated 2005).

Each structure is given as a SMILES string.

Tested on in one assay: not listed separately
The assay is described as follows: Rat Alzet minipump model: fecal weight and fecal bile acid concentration (FBA). The following applies: 20 MPL/DAY, mean (SEM). In kind it is in vivo.
As to `CCCC[C@]1(CC)CS(=O)(=O)c2cc(OC)ccc2[C@@H](c2ccccc2)[C@H]1O` [Example 25, (3a,4b,5b) 3-Butyl-3-ethyl-4-hydroxy-8-methoxy-5-phenyl-2,3,4,5-tetrahydrobenzothiepine-1,1-dioxide], the “24 HR. FECAL WT” value is 5.7 (0.4) G.

For another assay, the system named is uptake of [14C]-alanine in H14 cells. In words: In vitro assay of compounds that inhibit uptake of [14C]-alanine (H14 cells). The assay is classed as cell-based, hamster. To be noted: Mesocricetus auratus.
As usually defined, the inhibition is the relative decrease from the control value, in per cent. Turning to `CCCCC1(CC)CS(=O)(=O)c2ccccc2C(=C2CCCCC2)C1O` (stereo not drawn) [Example 10b, 3-Butyl-3-ethyl-4-hydroxy-5-cyclohexylidine-2,3,4,5-tetraydrobenzothiepine-1,1-dioxide], the inhibition at 100 µM was determined as 68.6%.

Still in this assay, the particulars now being: Mesocricetus auratus; @ 1.0 μM; read-out: Alanine Uptake Percent Inhibition @ μM.
With `CCCC[C@]1(CC)CS(=O)(=O)c2ccc(NC(=O)CCCCCCCCCCC(=O)Nc3ccc4c(c3)[C@@H](c3ccccc3)[C@@H](O)[C@](CC)(CCCC)CS4(=O)=O)cc2[C@@H](c2ccccc2)[C@H]1O` [Example 101], the inhibition at 1 µM stood at 0%.

A further assay concerns the target T1, human IBAT (Homo sapiens, UniProt Q12908).
T1 construct: expressed in transfected cells; host or cells: Baby hamster kidney (BHK) cells, clone H14
T1 sequence (Q12908 1-348): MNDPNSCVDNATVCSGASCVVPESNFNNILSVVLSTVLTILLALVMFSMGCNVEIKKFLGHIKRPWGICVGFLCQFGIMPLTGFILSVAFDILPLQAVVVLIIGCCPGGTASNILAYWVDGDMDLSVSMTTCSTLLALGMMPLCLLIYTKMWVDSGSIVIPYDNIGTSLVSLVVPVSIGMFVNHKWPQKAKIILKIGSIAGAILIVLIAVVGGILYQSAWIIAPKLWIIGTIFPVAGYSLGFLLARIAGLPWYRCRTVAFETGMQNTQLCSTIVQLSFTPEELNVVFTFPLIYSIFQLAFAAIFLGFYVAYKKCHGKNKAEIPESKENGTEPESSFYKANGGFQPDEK
In words: In vitro assay of compounds that inhibit IBAT-mediated uptake of [14C]-taurocholate (TC) in H14 cells. To be noted: [14C]-taurocholate uptake, read-out: Human TC IC50. In kind it is cell-based. Here is the method:
In Vitro Assay of Compounds That Inhibit IBAT-Mediated Uptake of [^14C]-Taurocholate (TC) in H14 Cells
Baby hamster kidney cells (BHK) transfected with the cDNA of human IBAT (H14 cells) are seeded at 60,000 cells/well in 96 well Top-Count tissue culture plates for assays run within in 24 hours of seeding, 30,000 cells/well for assays run within 48 hours, and 10,000 cells/well for assays run within 72 hours.
On the day of assay, the cell monolayer is gently washed once with […] assay buffer (Dulbecco's Modified Eaglets medium with 4.5 g/L glucose+0.2% (w/v) fatty acid free bovine serum albumin- (FAF)BSA). To each well 50 ml of a two-fold concentrate of test compound in assay buffer is added along with 50 ml of […] [^14C]-taurocholate in assay buffer (final concentration of […] [^14C]-taurocholate). The cell culture plates are incubated 2 hours at 37° C. prior to gently washing each well twice with […] 4° C. Dulbecco's phosphate-buffered saline (PBS) containing 0.2% (w/v) (FAF)BSA. The wells are then gently washed once with […] 4° C. PBS without (FAF)BSA. To each 200 ml of liquid scintillation counting fluid is added, the plates are heat sealed and shaken for 30 minutes at room temperature prior to measuring the amount of radioactivity in each well on a Packard Top-Count instrument.
What is called IC50 is the point on the concentration scale where inhibition reaches its midpoint. Take `CCCCC1(CC)CS(=O)(=O)c2ccc(OC)cc2C(c2cccc(F)c2)C1O` (stereo not drawn) [Example 279]: the IC50 was 400 nM. In the case of `CCCCC1(CCCC)CS(=O)(=O)c2ccc(N(C)C)cc2C(c2ccccc2)C1O` (stereo not drawn) [Example 1450], the 50% inhibitory concentration (IC50) was 39 nM.

As for `CCCCC1(CCCC)CS(=O)(=O)c2ccc(N(C)C)cc2C(c2ccc(OCCCCBr)c(F)c2)C1O` (stereo not drawn) [Example 1270], the IC50 worked out at 24 nM.

Turning to `CCCCC1(CCCC)CS(=O)(=O)c2ccc(N(C)C)cc2C(c2ccc(OCCOCC[S+](CC)CC)c(F)c2)C1O` (stereo not drawn) [Example 1299], the concentration for half-maximal inhibition (IC50) was 12 nM.

For `CCCCC1(CCCC)CS(=O)(=O)c2ccc(N(C)C)cc2C(c2cccc(NCCCS(=O)(=O)O)c2)C1O` (stereo not drawn) [Example 1451], the IC50 was determined as 14 nM.

On to `CCCCC1(CCCC)CS(=O)(=O)c2ccc(N(C)C)cc2C(c2cccc(OCCOCCOCC[N+](CC)(CCCc3ccccc3)CCCc3ccccc3)c2)C1O` (stereo not drawn) [Example 1449], for which the IC50 is 52 nM. On to `CCCCC1(CCCC)CS(=O)(=O)c2ccc(NC(C)(C)C)cc2C(c2ccc(F)cc2)C1O` (stereo not drawn) [Example 1227], for which the 50% inhibitory concentration (IC50) is 250 nM. Same read-out and setting: as for `CCCCC1(CCCC)CS(=O)(=O)c2ccc(NC(=O)OCc3ccccc3)cc2[C@@H](c2ccccc2)[C@H]1O` [Example 291], the figure is 600 nM; as for `CCCCC1(CCCC)CS(=O)(=O)c2ccc(N(C)C)cc2C(c2ccc(OCCCCCCCCCCOc3ccccc3[N+](C)(C)CC)cc2)C1O` (stereo not drawn) [Example 1351], 440 nM. In the case of `CCCCC1(CCCC)CS(=O)(=O)c2ccc(NCc3ccccc3)cc2[C@@H](c2ccccc2)[C@H]1O` [Example 293], the half-inhibitory concentration (IC50) came out at 1900 nM.

`CCCCC1(CC)CS(=O)(=O)c2ccc(OC)cc2C(c2ccccc2F)C1O` (stereo not drawn) [Example 278]: the IC50 turned out to be 3000 nM. Same read-out and setting: as for `CCCCC1(CCCC)CS(=O)(=O)c2ccc(N(C)C)cc2C(c2ccc(OCCCCCCCCCCI)cc2)C1O` (stereo not drawn) [Example 1269], the figure is 24 nM; as for `CCCCC1(CC)CS(=O)(=O)c2ccc(N(C)C)cc2C(c2ccc(OCCOCCOCCOc3ccc(C4c5cc(N(C)C)ccc5S(=O)(=O)CC(CC)(CCCC)C4O)cc3)cc2)C1O` (stereo not drawn) [Example 1211], 280 nM; as for `CCCC[C@@]1(CC)CS(=O)(=O)c2cc(OCCOCCOCCOc3ccc4c(c3)S(=O)(=O)C[C@@](CC)(CCCC)[C@@H](O)[C@H]4c3ccccc3)ccc2[C@@H](c2ccccc2)[C@H]1O` [Example 137], 2400 nM.

Take `CCCC[C@]1(CC)CS(=O)(=O)c2cc(OCCOCCOCCOc3ccc4c(c3)S(=O)(=O)C[C@@](CC)(CCCC)[C@H](O)[C@@H]4c3ccccc3)ccc2[C@@H](c2ccccc2)[C@H]1O` [Example 135]: the half-inhibitory concentration (IC50) was 22000 nM. The same measure, in the same setting: as for `CCCCC1(CCCC)CS(=O)(=O)c2ccc(N(C)C)cc2C(c2ccc(OCCOCCOCCOc3ccc(C4c5cc(N(C)C)ccc5S(=O)(=O)CC(CCCC)(CCCC)C4O)cc3)cc2)C1O` (stereo not drawn) [Example 1261], the figure is 19 nM.

Staying with this assay, now noted: [14C]-taurocholate uptake, read-out: IC50 (In vitro Taurocholate Cell Uptake).
For the molecule `CCCCC1(CC)CS(=O)(=O)c2ccccc2C(=C2CCCCC2)C1O` (stereo not drawn) [Example 10b, 3-Butyl-3-ethyl-4-hydroxy-5-cyclohexylidine-2,3,4,5-tetraydrobenzothiepine-1,1-dioxide], the IC50 came out at 15000 nM.

Tested on in a further assay: not listed separately
The assay is described as follows: Cholesterol-fed hamsters: fecal weight and fecal bile acid concentration (FBA). The assay is classed as in vivo, hamster. The following applies: mean (SEM), 4% cholestyramine or 0.2% Cpd. No. 25. As for the experimental part:
Measurement of Fecal Bile Acid Concentration (FBA)
Total fecal output from individually housed hamsters was collected for 24 or 48 hours, dried under a stream of nitrogen, pulverized and weighed. Approximately 0.1 gram was weighed out and extracted into an organic solvent (butanol/water). Following separation and drying, the residue was dissolved in methanol and the amount of bile acid present was measured enzymatically using the 3a-hydroxysteroid steroid dehydrogenase reaction with bile acids to reduce NAD. (Reference: Mashige, F., et al. (1981) Clin. Chem. 27, 1352).
Take `CCCC[C@]1(CC)CS(=O)(=O)c2cc(OC)ccc2[C@@H](c2ccccc2)[C@H]1O` [Example 25, (3a,4b,5b) 3-Butyl-3-ethyl-4-hydroxy-8-methoxy-5-phenyl-2,3,4,5-tetrahydrobenzothiepine-1,1-dioxide]: the “24 HR. FECAL Wt (G)” value is recorded as 2.4 (0.04) G.
